# Assays:
# 22Rv1 cells = assay: Apoptosis assay (annexin-V, TUNEL) in 22Rv1; assay type: cell-based, human; settings: 22Rv1, 1 μM, 0 to 48 hours; starts approximately three hours after treatment, increases through 48 hours
# Procedure: Apoptosis Assay. An apoptosis assay is carried out using the Thermo Fisher ApoDETECT Annexin V-FITC kit following the protocol recommended by the vendor. […] Then, fixed cells are incubated with Annexin V-FITC in PBS solution for 30 minutes at room temperature. After washing three times with PBS, cells are treated with 300 nM DAPI in PBS for 5 minutes at room temperature. Finally, after washing three times with PBS, mounting solution is added and the cells are visualized using immunofluorescence microscopy. Next, a TUNEL assay is performed using Promega DeadEnd Fluorometric TUNEL system. After treatment with Test Compound and fixation as described above in the Annexin-V experiment, 100 μl of equilibration buffer is incubated for 10 min. Then, 50 μl of TdT reaction mix is added and incubated for 60 min at 37° C. in a humidified chamber. Finally, stop solution is added and samples are mounted on slides using mounting medium. To assess non-specific cytotoxicity, an LDH assay kit is used.
# 22Rv1-Enz^R cells = assay: 22Rv1-Enz^R cell proliferation (cell count, Experimental Example 3); assay type: cell-based, human; settings: 10 μM, 4 days, MG-132 (5 μM) pretreatment
# Procedure: The human prostate cancer cell line, 22Rv1 has been reported to express a high level of AR-V7. Thus, 22Rv1 was seeded at 50,000 cells/well on a 24-well plate in quadruplicates and treated with test compound in concentrations ranging up to 20 μM for four days. Standard culture media was RPMI-1640 supplemented with 10% fetal bovine serum. The test compound initially was dissolved in DMSO at 50 mM. This stock solution was then diluted as needed for the indicated concentrations. At the end of the four-day period, cells were harvested using 1% trypsin and counted using an automated cell counter.
# Cell Culture. Human CaP cell lines, LNCaP, 22Rv1, VCaP, PC3, and DU145 are obtained from the American Type Culture Collection (ATCC) and maintained in the standard culture media: RPMI-1640 supplemented with 10% fetal bovine serum (FBS). LNCaP, 22Rv1, and VCaP are androgen-responsive cell lines, while PC3 and DU145 are not. To establish SAT resistant CaP cell lines, LNCaP, 22Rv1, and VCaP are treated continuously with 10-50 μM abiraterone, apalutamide, darolutamide, or enzalutamide. After 3-6 months, stable cell lines are established and designated as LNCaP-Abi^R, LNCaP-Apa^R, LNCaP-Daro^R, LNCaP-Enz^R, VCaP-Abi^R, VCaP-Apa^R, VCaP-Daro^R, VCaP-Enz^R, 22Rv1-Abi^R, 22Rv1-Apa^R, 22Rv1-Daro^R and 22Rv1-Enz^R. Unless otherwise specified, the standard culture media for these SAT-resistant cell lines included 10 μM of their respective SAT. For the proteasome inhibitor study, the inhibitors MG132 and Epoxomicin are used. The E3 ligase inhibitors Heclin, Nutlin 3a, Thalidomide, and VH298 are used. Cell lines obtained from ATCC are confirmed by checking their morphology using optical microscopy, establishing baselines for cell proliferation, verifying species of origin using isoenzymology, and characterizing the cell's DNA fingerprint using short tandem repeat (STR) profiling. Mycoplasma contamination is also assessed using a PCR based detection system.
# 22Rv1 = 22Rv1 cell proliferation assay (Experimental Example 1, cell count); assay type: cell-based; settings: Homo sapiens, 22Rv1, read-out: 22Rv1 cell count decrease at 10 μM for 48 hours; 10 μM (method: four days); read-out: 22Rv1 cell count decrease at 10 μM
# Procedure: The human prostate cancer cell line, 22Rv1 has been reported to express a high level of AR-V7. […] Standard culture media was RPMI-1640 supplemented with 10% fetal bovine serum. The test compound initially was dissolved in DMSO at 50 mM. This stock solution was then diluted as needed for the indicated concentrations. […]
# In the Table: (+)—the cell count decreased between 0 and 20%; (++)—the cell count decreased […]; (+++)—the cell count decreased by more than 50%.
SMILES,"apoptosis, annexin-V assay (22Rv1 cells)",reduction of 22Rv1-Enz^R cell counts after pretreatment with MG-132 (22Rv1-Enz^R cells),inhibition at 10 µM (22Rv1)
"O=C(O)CCCCNC(=O)COc1c(-c2csc(N3CCOCC3)n2)ccc(F)c1F [Example C1, reference compound]",no change in apoptosis,–,–
"Cl.NCCCCCCCCCCNc1cccc2c1C(=O)N(C1CCC(=O)NC1=O)C2=O (centres unmarked) [Example 34, 4-((10-aminodecyl)amino)-2-(2,6-dioxopiperidin-3-yl)isoindoline-1,3-dione hydrochloride]",–,substantially blocked,< 50%
"CN[C@@H](C)C(=O)N[C@H](C(=O)N1Cc2cc(OCCOCCOc3c(-c4csc(N5CCOCC5)n4)ccc(F)c3F)ccc2C[C@H]1C(=O)N[C@@H]1CCCc2ccccc21)C(C)(C)C.Cl.Cl [Example 35, (S)-7-(2-(2-(2,3-difluoro-6-(2-morpholinothiazol-4-yl)phenoxy)ethoxy)ethoxy)-2-((S)-3,3-dimethyl-2-((S)-2-(methylamino)propanamido)butanoyl)-N-((R)-1,2,3,4-tetrahydronaphthalen-1-yl)-1,2,3,4-tetrahydroisoquinoline-3-carboxamide dihydrochloride]",–,substantially blocked,> 50%
